From patent publication US11484536B2, “Method of treating metastatic cancer in a subject with a protein inhibitor” (City University of Hong Kong, priority 2020, dated 2022)
Entries after “also recorded” stand apart in the source; their conditions may differ.

Assays:
[1] = system: 4T1, 4T07, and MDA-MB-231 cells; assay: Trans-well migration assay; format: cell-based, human or mouse; settings: indicated concentrations, 18 h, compared with V1
Method: FIG. 2A is a series of microscopic images and bar charts showing the migration of 4T1, 4T07, and MDA-MB-231 cells in transwell plates in the presence or absence of V1 (1 μM). FIG. 2B is a series of microscopic images and bar charts showing the invasion of 4T1, 4T07, and MDA-MB-231 cells in invasion chambers in the presence or absence of V1 (1 μM). FIG. 2C is a series of optical images and a bar chart showing the closure of a scratch-wound plated with 4T1 cells, treated with or without V1 (1 μM), after 0, 24, and 48 h. FIG. 2D is a series of optical images and a bar chart showing the closure of a scratch-wound plated with 4T07 cells, treated with or without V1 (1 μM), after 0, 24, and 48 h. FIG. 2E is a series of microscopic images showing the migration of 4T07 cells in transwell plates in the presence or absence of V1 or LA at indicated concentrations after 18 h. […]
In this example, the cytotoxicity and the anti-migration effects of V1 are compared with latrunculin A (LA), an F-actin destabilizer. […] The breast cancer cells were placed on the upper chamber of the transwell plates or invasion chambers coated with Matrigel in the presence or absence of V1, after 18 h of incubation, the cells at the lower chamber were stained with crystal violet and quantified. […]

HeLa cells [2] = assay: Focal adhesion dynamics after nocodazole release (Vinculin puncta); format: cell-based; settings: nocodazole treatment
Excerpt: The indicated time points represent at which NOC was removed from the HeLa cells, followed by staining the cells with anti-Vinculin antibody and Phalloidin. […] The indicated time points of FIGS. 3B and 3C represent at which the HeLa cells were released from cold arrest, followed by being stained with antibodies against EEA1 or LAMP1.
Focal adhesion (FA) dynamics is a key process during cell migration and therefore the effects of V1 treatment on spatiotemporal regulation of FA dynamics have been assessed. HeLa cells were plated on cover slides at 24-well plates and treated with nocodazole (NOC) in the presence or absence of V1 (1 μM). At indicated times, after removing NOC, the cells were stained with anti-Vinculin antibody and Phalloidin, and the Vinculin puncta were quantified.

[3] = system: HeLa, A549, or MDA-MB-231 cells; assay: Cytotoxicity of 6J-1 by PI staining and living cell number; format: cell-based
Method: FIG. 24A is a bar chart showing the percentage of cell death of HeLa cells treated with or without 6J-1 at the indicated concentrations for 24 or 48 h. FIG. 24B is a bar chart showing the percentage of cell death of A549 cells treated with or without 6J-1 at the indicated concentrations for 24 or 48 h. FIG. 24C is a bar chart showing the percentage of cell death of MDA-MB-231 cells treated with or without 6J-1 at the indicated concentrations for 24 or 48 h.
FIG. 25A is a line chart showing the number of HeLa cells treated with or without 6J-1 at the indicated concentrations for 0, 24 or 48 h. FIG. 25B is a line chart showing the number of MDA-MB-231 cells treated with or without 6J-1 at the indicated concentrations for 0, 24 or 48 h. FIG. 25C is a line chart showing the number of A549 cells treated with or without 6J-1 at the indicated concentrations for 0, 24 or 48 h.
The cytotoxicity of 6J-1 on different cancer cell lines has been examined by PI staining, and the cell number of living cells was quantified as well. As shown in FIGS. 24A-24C and 25A-25C, 6J-1 is non-cytotoxic to HeLa, A549, or MDA-MB-231 cells at concentrations of 0.01-10 μM. Even at a concentration of as high as 100 μM, there were over 80% of the 6J-1-treated cells remained alive.

A549 and HepG2 cells = assay: Migration of cancer cells treated with 6J-1; format: cell-based; settings: 6J-1 1 μM
Method: FIG. 27A is a pair of microscopic images showing the migration of A549 cells treated with or without 6J-1 (1 μM). FIG. 27B is a series of microscopic images showing the migration of HepG2 cells treated with or without V1 (1 μM) or 6J-1 (1 μM).
(§1) The inhibitory effect of 6J-1 on colony formation of several cancer cell lines, including 4T1, A549, HCCLM3, and HepG2 has been examined. […] Overall, 6J-1 is found to be as potent as V1.

A549 cells = assay: Invasion of cancer cells treated with 6J-1; format: cell-based; settings: 6J-1 1 μM
Method: FIG. 28 is a pair of microscopic images showing the invasion of A549 cells treated with or without 6J-1 (1 μM).
as §1

HeLa cells [4] = assay: LC3-II and p62 accumulation immunoblot; format: cell-based
Method: FIG. 12A is a synthetic scheme of a V1 analog carrying a clickable terminal alkynyl group. FIG. 12B is a synthetic scheme of azide-biotin. FIG. 12C is a synthetic scheme of Vi-biotin.
FIG. 23A is a schematic diagram illustrating the structure of 6J-1.
Subsequently, biotin-V1 was administered to HeLa cell extracts, the V1 binding complex was purified with streptavidin beads, and subjected to mass analysis. There were 85 potential V1 binding proteins identified in three independent experiments with high fidelity (FIG. 13A). Among them, 32 proteins were clustered in endocytosis and vesicle-mediated transport pathways using KOBAS online software.
In this example, a 6-morpholino-1,3,5-triazine derivative, 6J-1 was synthesized and used as an exemplary example to illustrate the inhibitory effect of 6-morpholino-1,3,5-triazine derivatives on endosomal trafficking and metastasis. As illustrated above, the induction of accumulation of LC3-II and p62 by biotin-V1 would accompany with the induction of vacuoles as well as the inhibition of transferrin degradation (see Example 4).

[5] = system: 4T1 mouse breast cancer cells; assay: Spontaneous cancer mouse model, fat pad injection of 4T1 cells into nude mice; settings: 6J-1 30 mg/kg, oral, every day, 4 weeks
Method: FIG. 5A is a schematic diagram showing a method for determining the anti-metastatic activity of V1 in female nude mice with their fat pads injected with 4T1 cells, where V1 is administered to the mice via an oral gauge. FIG. 5B is a series of optical images showing the excised lungs of the mice treated with a buffer or V1 (15 or 30 mg/kg, daily) via the oral gauge for 4 weeks. FIG. 5C is a line plot showing the number of tumor nodules in the excised lungs against different concentrations of V1.
FIG. 29A is a series of optical images showing the excised lungs of female nude mice treated with a buffer or 6J-1 (30 mg/kg, oral delivery, daily) for 4 weeks. FIG. 29B is a line plot showing the number of tumor nodules in the excised lungs of the mice of FIG. 29A.
First, we studied V1's anti-metastatic effects in a spontaneous cancer mouse model by fat pad injecting 4T1 mouse breast cancer cells into nude mice (FIG. 5A). After tumors were palpable (˜5 mm, around day 9), the mice were randomly divided into three groups (six mice per group) orally treated with or without V1 (15 or 30 mg/ml) every day. After 4 weeks, the mice were sacrificed; the primary tumors and lungs of the mice were harvested for analysis.

[6] = system: 4T1, A549, HCCLM3, and HepG2; assay: Colony formation of cancer cell lines; format: cell-based; settings: indicated concentrations
Excerpt: FIG. 26 is a series of optical images showing colony formation of 4T1, A549, HCCLM3, and HepG2 cells treated with or without 6J-1 at the indicated concentrations.
as §1

[7] = molecular target: T1, recombinant CapZβ-CapZα heterodimer (Homo sapiens, UniProt P47756); assay: Streptavidin pulldown with purified recombinant CapZα and CapZβ; format: binding; settings: in vitro
T1 construct: His6
Method: FIG. 14D is a pair of immunoblots of purified CapZα and CapZβ recombinant proteins after incubated with Biotin-V1. FIG. 14E is a CapZβ immunoblot of lysate of HeLa cells treated with biotin or Biotin-V1.
The expression of these genes in HeLa cells were knocked out by CRISPR/Cas9 to assess whether the ability of V1 inducing vacuole formation or endocytosis arrest would be affected by these knockdowns. […] CapZα and CapZβ are the α and β subunits of the actin capping protein (CP), also called CapZ, and the CapZβ-CapZα heterodimeric complex normally binds to the barbed ends of actin filaments to prevent further filament elongation. To investigate whether biotin-V1 or biotin alone would be able to bind with the CapZβ-CapZα heterodimeric complex, the inventors have incubated biotin or bioin-V1 with purified His6-CapZα and His6-CapZβ recombinant proteins, or purified CapZα and CapZβ proteins, followed by subjecting the mixture to streptavidin pulldown. The streptavidin pulldowns were analyzed by His6 immunoblotting, coomassie blue staining or CapZβ immunoblotting. […] In addition, in another experiment, HeLa cells were treated with biotin or biotin-V1 and the lysate thereof was incubated with streptavidin beads, followed by subjecting to streptavidin pulldown.

C/C1=C/C(=O)O[C@@H]2C[C@@H](CC[C@H](C)/C=C\C=C\CC1)O[C@@](O)([C@@H]1CSC(=O)N1)C2 [LA, latrunculin A]
migration of 4T07 cells [1]: much lower effect on the migration of 4T07 cells at similar concentrations of V1

COC(=O)Nc1nc2ccc(C(=O)c3cccs3)cc2[nH]1 [NOC, nocodazole]
effect on microtubules and formation of FAs (HeLa cells [2]): depolymerized the microtubules and stabilized the formation of FAs

OCCOCCN(c1ccccc1)c1nc(N/N=C/c2cccc(I)c2)nc(N2CCOCC2)n1 [6J-1]
treated cells remained alive ([3]; 100 μM): over 80% | cytotoxicity ([3]; 0.01-10 μM, 24 or 48 h): non-cytotoxic | migration of cancer cells (A549 and HepG2 cells): capable of inhibiting migration and invasion of cancer cells | invasion of cancer cells (A549 cells): capable of inhibiting migration and invasion of cancer cells | accumulation of LC3-II and p62 (HeLa cells [4]): highly comparable result as V1; also recorded: induces comparable accumulation of LC3-II and p62 in HeLa cells as V1 | metastasis of 4T1 cells (tumor nodules in the lungs) [5]: significantly inhibited the metastasis of 4T1 cells | colony formation [6]: inhibitory on the colony formation of all the aforementioned cell lines in a dose dependent manner

O=C(O)CCCC[C@@H]1SC[C@@H]2NC(=O)N[C@@H]21 [biotin]
interaction with recombinant CapZβ-CapZα heterodimer [7]: not biotin alone
